Measurements: publication PMC6002460, “Pharmacological evaluation of new constituents of “Spice”: synthetic cannabinoids based on indole, indazole, benzimidazole and carbazole scaffolds” (Forensic Toxicology, 2018)
Where two headings read alike, the source gives them in different places.

What was measured:
human CB2 receptor = biological target: T1, human CB2 receptor (Homo sapiens, UniProt P34972); assay: biochemical; type: binding; conditions: [3H]CP55,940 0.1 nM, CHO cell membranes; read-out: Ki ± SEM Human CB2
T1 construct: expressed in transfected cells; host or cells: CHO cells (membrane preparations)

human GPR18 = biological target: T2, human GPR18 (Homo sapiens, UniProt Q14330); assay: β-Arrestin PathHunter assay, recombinant CHO cells expressing GPR18; type: cell-based; conditions: for Human GPR18 % activation / Human GPR18 % inhibition: value in parentheses
T2 construct: host or cells: CHO cells
T2 sequence (Q14330 1-331): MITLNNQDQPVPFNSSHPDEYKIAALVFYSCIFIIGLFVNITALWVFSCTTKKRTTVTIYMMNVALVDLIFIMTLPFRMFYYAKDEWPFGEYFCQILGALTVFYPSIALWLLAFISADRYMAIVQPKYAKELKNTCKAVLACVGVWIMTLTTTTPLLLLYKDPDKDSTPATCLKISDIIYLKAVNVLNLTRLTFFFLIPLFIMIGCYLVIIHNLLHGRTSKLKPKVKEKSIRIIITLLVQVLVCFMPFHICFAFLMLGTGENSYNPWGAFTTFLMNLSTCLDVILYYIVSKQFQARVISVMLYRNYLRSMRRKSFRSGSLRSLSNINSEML
Description: (§1) β-Arrestin assays were performed in recombinant CHO cells expressing either the human GPR18 or the human GPR55 as described before using the β-galactosidase enzyme fragment complementation technology (β-arrestin PathHunter™ assay; DiscoverX, Fremont, CA, USA).
(§2) The orphan receptors GPR18 and GPR55 can interact with certain natural and synthetic cannabinoids. […] Therefore, we investigated the new series of indole, indazole, benzimidazole and carbazole-derived structures in β-arrestin assays at GPR18 and GPR55 (Table 2). […] For the lipophilic substitutions, the following rank order of potency was observed: ethyl > methyl > chloro > fluoro. Therefore, it can be concluded that a lipophilic substitution in position 4 of the naphthyl residue was a requirement for GPR55 inhibition.

human GPR55 = biological target: T3, human GPR55 (Homo sapiens, UniProt Q9Y2T6); assay: β-Arrestin PathHunter assay, recombinant CHO cells expressing GPR55; type: cell-based; conditions: for Human GPR55 % activation / Human GPR55 % inhibition: value in parentheses; for Human GPR55 % inhibition: antagonist mode versus LPI 1 µM
T3 construct: host or cells: CHO cells
Description: as §1, §2

human CB1 receptor = biological target: T4, human CB1 receptor (Homo sapiens, UniProt P21554); assay: biochemical; type: binding; conditions: [3H]CP55,940 0.1 nM, CHO cell membranes; read-out: Ki ± SEM Human CB1
T4 construct: expressed in transfected cells; host or cells: CHO cells (membrane preparations)

CB2 receptor = conditions: membrane potential assay, cited from earlier work
CB1 receptor = conditions: membrane potential assay, cited from earlier work

T1 sequence (P34972 whole entry): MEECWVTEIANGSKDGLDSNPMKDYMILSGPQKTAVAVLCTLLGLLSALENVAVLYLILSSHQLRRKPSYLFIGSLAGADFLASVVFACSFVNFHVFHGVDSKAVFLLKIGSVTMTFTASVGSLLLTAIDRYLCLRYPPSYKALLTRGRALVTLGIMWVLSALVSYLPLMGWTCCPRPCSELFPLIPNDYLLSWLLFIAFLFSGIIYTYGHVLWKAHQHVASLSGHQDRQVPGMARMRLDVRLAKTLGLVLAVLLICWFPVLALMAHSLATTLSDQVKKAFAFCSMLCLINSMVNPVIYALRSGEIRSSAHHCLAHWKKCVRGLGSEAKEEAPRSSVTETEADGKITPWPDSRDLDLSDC
T3 sequence (Q9Y2T6 whole entry): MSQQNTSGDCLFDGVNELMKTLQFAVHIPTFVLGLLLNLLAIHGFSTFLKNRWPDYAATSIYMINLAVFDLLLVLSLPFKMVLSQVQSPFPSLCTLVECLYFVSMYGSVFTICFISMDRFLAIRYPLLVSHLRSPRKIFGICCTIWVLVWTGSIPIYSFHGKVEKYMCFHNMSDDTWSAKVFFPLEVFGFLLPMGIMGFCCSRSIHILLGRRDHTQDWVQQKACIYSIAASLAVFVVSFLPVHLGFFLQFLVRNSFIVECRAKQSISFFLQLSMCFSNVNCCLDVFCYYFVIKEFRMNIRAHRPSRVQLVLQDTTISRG
T4 sequence (P21554 whole entry): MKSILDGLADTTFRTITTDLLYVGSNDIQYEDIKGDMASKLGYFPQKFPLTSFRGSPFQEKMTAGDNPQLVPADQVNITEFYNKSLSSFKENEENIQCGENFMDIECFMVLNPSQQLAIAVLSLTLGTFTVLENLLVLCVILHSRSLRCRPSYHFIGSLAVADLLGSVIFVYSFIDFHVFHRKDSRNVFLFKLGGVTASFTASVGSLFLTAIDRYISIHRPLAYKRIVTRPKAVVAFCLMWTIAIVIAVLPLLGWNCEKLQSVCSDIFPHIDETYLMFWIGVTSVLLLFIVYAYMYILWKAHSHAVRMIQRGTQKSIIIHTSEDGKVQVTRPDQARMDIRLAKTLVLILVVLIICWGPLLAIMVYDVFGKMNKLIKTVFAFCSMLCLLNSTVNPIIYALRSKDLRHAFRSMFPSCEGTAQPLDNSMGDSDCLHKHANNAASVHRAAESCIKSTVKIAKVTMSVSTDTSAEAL

Row | Structure (SMILES) | Ki (human CB2 receptor) [nM] | Human GPR18 % activation (human GPR18; agonist mode) [%] | EC50 (human GPR18; agonist mode, read-out: Human GPR18 EC50) [nM] | IC50 (human GPR18; antagonist mode, read-out: Human GPR18 IC50) [nM] | Human GPR55 % activation (human GPR55; agonist mode) | EC50 (human GPR55; agonist mode, read-out: Human GPR55 EC50) [nM] | Human GPR55 % inhibition (human GPR55) [%] | IC50 (human GPR55; antagonist mode versus lysophosphatidylinositol (LPI, 1 µM), read-out: Human GPR55 IC50) [nM] | EC50 (human GPR18) [nM] | IC50 (human GPR18) [nM] | Ki (human CB1 receptor) [nM] | EC50 (human GPR55) [nM] | IC50 (human GPR55) [nM] | EC50 (CB2 receptor; ref Banister et al. [42]) [nM] | Human GPR18 % inhibition (human GPR18; antagonist mode) | EC50 (CB1 receptor; ref Banister et al. [42]) [nM] | EC50 (CB2 receptor; ref Banister et al. [38]) [nM] | EC50 (CB1 receptor; ref Banister et al. [38]) [nM]
1 | CCCCCn1c2ccccc2c2cc(C(=O)c3cccc4ccccc34)ccc21 [compound 39, EG-018] | 2.27 ± 0.38 | 2 | > 10000 | > 10000 | 0% | > 10000 | 1 | > 10000 |  |  |  |  |  |  |  |  |  | 
2 | CCCCCn1cc(C(=O)N[C@H](C(=O)OC)C(C)C)c2ccccc21 [compound 5, MMB-018] | 14 ± 0.8 | 13 |  |  | 5% |  | 5 |  | > 10000 | > 10000 | 15.1 ± 5.9 | > 10000 | > 10000 |  |  |  |  | 
3 | CC(C)[C@H](NC(=O)c1nn(CCCCCF)c2ccccc12)C(N)=O [compound 16, 5F-AB-PINACA] | 3.77 ± 0.25 | 12 |  |  | 15% |  |  |  | > 10000 | > 10000 | 4.96 ± 1.37 | > 10000 | > 10000 | 2.6 | > 10 (10%) | 0.48 |  | 
4 | CC(C)[C@H](NC(=O)c1nn(CCCCCCl)c2ccccc12)C(N)=O [compound 17, 5Cl-AB-PINACA] | 12 ± 1.7 | 4 |  |  | 17% |  |  |  | > 10000 | > 10000 | 4.06 ± 1.95 | > 10000 | > 10000 |  | 0% |  |  | 
5 | NC(=O)[C@H](Cc1ccccc1)NC(=O)c1cn(CCCCCF)c2ccccc12 [compound 27, PX-1] | 164 ± 17 | 15 |  |  | 6% |  | 1 |  | > 10000 | > 10000 | 485 ± 117 | > 10000 | > 10000 |  |  |  |  | 
6 | CC(C)(C)[C@H](NC(=O)c1nn(Cc2ccc(F)cc2)c2ccccc12)C(N)=O [compound 24, ADB-FUBINACA] | 0.339 ± 0.059 | 7 |  |  | 7% |  |  |  | > 10000 | > 10000 |  | > 10000 | > 10000 | 3.5 | 16% | 1.2 |  | 
7 | COC(=O)[C@@H](OC(=O)c1nn(CC2CCCCC2)c2ccccc12)C(C)(C)C [compound 34] | 1.11 ± 0.14 | 0 |  |  | 1% |  |  |  | > 10000 | 12600 ± 3500 | 10.4 ± 7.4 | > 10000 | 9290 ± 1700 |  |  |  |  | 
8 | CC(C)(C)[C@H](NC(=O)c1cn(CCCCCF)c2ccccc12)C(N)=O [compound 21, 5F-ADBICA] | 1.83 ± 0.11 | 27 |  |  | 8% |  |  |  | > 10000 | > 10000 | 2.72 ± 0.35 | > 10000 | > 10000 | 1.2 |  | 0.77 |  | 
9 | O=C(c1ccc(F)c2ccccc12)c1cn(CCCCCF)c2ccccc12 [compound 36, F-2201] | 1.89 ± 0.57 | 18 |  |  |  |  |  |  | > 10000 | > 10000 | 0.852 ± 0.192 | > 10000 | 22100 ± 12200 |  | 14% |  |  | 
10 | O=C(c1ccc(Cl)c2ccccc12)c1cn(CCCCCF)c2ccccc12 [compound 37, Cl-2201] | 1.18 ± 0.19 | 16 |  |  |  |  |  |  | > 10000 | > 10000 | 0.772 ± 0.101 | > 10000 | 7120 ± 1260 |  | 4% |  |  | 
11 | CC(C)(C)[C@H](NC(=O)c1nn(CCCCCF)c2ccccc12)C(N)=O [compound 23, 5F-ADB-PINACA] | 0.694 ± 0.078 | 9 |  |  | 18% |  |  |  | > 10000 | > 10000 | 1.43 ± 0.69 | > 10000 | > 10000 | 2.1 | 21% | 0.24 |  | 
12 | CC[C@H](C)[C@H](NC(=O)c1nn(CCCCCF)c2ccccc12)C(N)=O (single isomer, unassigned; isomer 2) [compound 26, 5F-ADB-PINACA-isomer 2] | 4.28 ± 2.86 | 8 |  |  | 2% |  |  |  | > 10000 | > 10000 | 3.1 ± 1.53 | > 10000 | > 10000 |  |  |  |  | 
13 | COC(=O)[C@@H](NC(=O)c1cn(CC2CCCCC2)c2ccccc12)C(C)(C)C [compound 13, MDMB-CHMICA] | 0.354 ± 0.05 | 5 |  |  | 5% |  | 38 |  | > 10000 | 14100 ± 3100 | 0.41 ± 0.141 | > 10000 | > 10000 |  |  |  | 71 | 10
14 | COC(=O)[C@@H](NC(=O)c1nn(CC2CCCCC2)c2ccccc12)C(C)(C)C [compound 14] | 0.222 ± 0.034 | 27 |  |  |  |  |  |  | > 10000 | ~10000 | 0.135 ± 0.028 | > 10000 | 10300 ± 1700 |  | 51% |  | 128 | 10
15 | CC(C)[C@H](NC(=O)c1cn(CCCCCF)c2ccccc12)C(N)=O [compound 15, 5F-AB-PICA] | 89 ± 33.2 | 23 |  |  | > 10 (10%) |  |  |  | > 10000 | > 10000 | 35 ± 7.7 | > 10000 | > 10000 | 8.9 |  | 5.2 |  | 
16 | CC(C)(C)[C@H](NC(=O)c1nn(CC2CCCCC2)c2ccccc12)C(N)=O [compound 25] | 0.331 ± 0.048 | 6 |  |  | 16% |  |  |  | > 10000 | > 10000 | 0.333 ± 0.059 | > 10000 | > 10000 |  | > 10 (10%) |  |  | 
17 | O=C(Nc1cccc2ccccc12)c1cn(Cc2ccc(F)cc2)c2ccccc12 [compound 4, FDU-NNEI] | 64 ± 15 | 20 |  |  | 13% |  | 2 |  | > 10000 | > 10000 | 7.42 ± 2.51 | > 10000 | > 10000 |  |  |  |  | 
18 | O=C(c1cccc2ccccc12)c1cn(Cc2ccc(F)cc2)c2ccccc12 [compound 35, FUB-JWH-018] | 1.34 ± 0.48 | 20 |  |  | 7% |  | 30 |  | > 10000 | > 10000 | 3.27 ± 1.76 | > 10000 | > 10000 |  | 30% |  |  | 
19 | CCCCCn1nc(C(=O)N[C@H](C(=O)OC)C(C)C)c2ccccc21 [compound 6, AMB] | 0.973 ± 0.104 | 42 |  |  | 15% |  | 28 |  | > 10000 | > 10000 | 0.866 ± 0.057 | > 10000 | > 10000 |  | 15% |  |  | 
20 | CC(C)(C)[C@H](NC(=O)c1cn(CC2CCCCC2)c2ccccc12)C(N)=O [compound 22, ADB-CHMICA] | 0.628 ± 0.231 | 8 |  |  | 17% |  | 8 |  | > 10000 | > 10000 | 1.24 ± 0.36 | > 10000 | > 10000 |  | 14% |  |  | 
21 | COC(=O)[C@@H](NC(=O)c1cn(CCCCCF)c2ccccc12)C(C)C [compound 7, MMB-2201] | 19.8 ± 4.2 | 2 |  |  | 5% |  |  |  | > 10000 | > 10000 | 15.2 ± 5 | > 10000 | > 10000 |  |  |  |  | 
22 | NC(=O)[C@H](Cc1ccccc1)NC(=O)c1nn(CCCCCF)c2ccccc12 [compound 28, PX-2] | 17.4 ± 1.4 |  |  |  | 16% |  |  |  | > 10000 | > 10000 | 127 ± 43 | > 10000 | > 10000 |  | 15% |  |  | 
